In patent US11180791B2, “MYO1A for predicting conversion of acute pain into chronic pain and use of MYO1A for therapy of pain” (UNIVERSITE D'AIX-MARSEILLE, priority 2016, dated 2021):
“Also recorded” adds a separate entry of the source.

Tests used:
WT and Myo1a KO mice [1] = test: Spared nerve injury (SNI) neuropathic pain model, mechanical thresholds (Von Frey, up-down); assay type: in vivo; settings: for reversal of SNI-induced mechanical hypersensitivity: both genotypes (WT and Myo1a KO), i.t 10 nmol SNC80, 0.2 nmol DAMGO, 0.1 μg baclofen, 2 μg TAFA4, 40 μg taurine, i.p 3 mg/kg pregabalin
Protocol: (A-D) Mechanical responses of WT and KO mice following SNI surgery and i.t administration at indicated time-points of 10 nmol of SNC80, 0.2 nmol of DAMGO (A), 0.1 μg of baclofen, 2 μg of TAFA4 (n=6 mice per genotype) (B), 40 μg of taurine, i.p administration of 3 mg/kg of pregabalin (n=8 mice per genotype) (C) and i.t administration of 0.15 μg of muscimol (n=8 mice per genotype) (D).
(§1) SNC80 (Tocris Bioscience) was dissolved in a 100 mM HCl solution, DAMGO (Sigma Aldrich) was dissolved in saline (0.9% NaCl), Baclofen (Sigma Aldrich) was dissolved in H2O (pH7.6), recombinant human TAFA4 (R&D Systems) was dissolved in saline, Diazepam (DZP, Roche) was dissolved in 10% dimethyl sulfoxide (DMSO)/90% saline, Muscimol (Tocris Bioscience), Taurine (Sigma Aldrich), Bicuculline (Sigma Aldrich) and Pregabalin (Sigma Aldrich) were dissolved in Phosphate Buffer (PB, 50 mM, pH 7.4).
(§2) Except for pregabalin, all drugs were administrated via intratechal (i.t) injection. Pregabalin was injected intra-peritoneally (i.p).
(§3) All behavioral analyses were conducted on 8-12 weeks old Myo1a KO and WT males. All experiments were carried at room temperature (˜22° C.). Animals were acclimated for one hour to their testing environment prior to all experiments. Experimenters were blind to the genotype of the mice during testing. All error bars represent SEM. All statistical analysis was carried using Two Way Repeated Measures ANOVA followed by Bonferroni's post-hoc test. Openfield, Rotarod, Hot plate and Formalin tests were carried as described in Gaillard et al., 2014 (Gaillard et al., 2014).
(§4) Mechanical thresholds of the plantar surface were determined using Von Frey's filaments with the up-down method (Chaplan et al., 1994), previously as described (Gaillard et al., 2014) prior to and at several time-points after inflammation, neuropathy and paw-incision surgery.
Spared nerve injury surgery was performed as described (Shields et al., 2003). Briefly, mice were anesthetized with a mix of ketamine/xylazine and an incision was made through the skin and thigh muscle at the level of the trifurcation of the sciatic nerve. The common sural and peroneal nerves were ligated using a 6.0 silk filament (Ethicon, Piscataway, N.J., USA) and transected, while leaving the tibial nerve intact. After surgery, the animals were allowed to recover in a warming chamber, and then they were returned to their home cages. Mechanical thresholds were determined at days 7, 9 and 14 post-surgery, before and after drug administration.

WT and Myo1a KO mice [2] = test: Zymosan-A induced inflammatory pain model, mechanical thresholds (Von Frey, up-down); assay type: in vivo; settings: for reversal of zymosan-induced mechanical hypersensitivity: i.t 0.15 μg muscimol, 0.09 mg/kg DZP
Protocol: (E-G) Mechanical responses of WT and KO mice following zymosan-induced inflammation (n=9 mice per genotype) (E) and i.t administration at indicated time-points of 0.15 μg of muscimol, 10 nmol of SNC80 (n=9 mice per genotype) (F) and 0.09 mg/kg of DZP (G) (n=7 mice per genotype). Data are presented as mean±SEM for each group (*p<0.05; **p<0.01; ***p<0.001; ns: non-significant).
as §1, §2, §3, §4
20 μl of a solution containing 1% carrageenan in H2O (weight/vol, Sigma) or 20 μl of a solution containing 0.06 mg Zymosan-A in 0.9% NaCl (weight/vol, Sigma), were injected subcutaneously into the plantar side of the left hindpaw, using a 30 G needled syringe.
For carrageenan-induced inflammation, mechanical thresholds were determined prior to inflammation and at several time-points (see legend) starting from 1 hour and up to 60 days after inflammation. For zymosan inflammation, mechanical thresholds were measured prior to injection, at day 1 and at several time-points (see legend) up day 60. In addition, mechanical thresholds in the zymosan model were measured before inflammation, at day 1 and day 2, before and after drug administration.

laminae II neurons = test: Whole-cell patch-clamp recording of spontaneous EPSC in spinal cord slices; assay type: cell-based, mice
Protocol: (C-F) Whole cell recordings of spontaneous EPSC in laminae II interneurons after Musc application in naïve (C-D) and in zymosan-inflamed WT and KO mice (E-F).
Left panels: representative traces of EPSC obtained under ACSF (black traces), following superfusion of 5 μM Musc (blue traces) and during wash (brown traces).
Middle panels: Cumulative distribution of EPSC intervals (in seconds) for the experiments shown in the left panels. Note the shift of the Musc/blue curves towards the left (C, D, E middle panels), indicating a reversible increase in EPSC frequency.
Right panels: Normalized EPSC frequency (mean±SEM) under ACSF, following superfusion of 5 μM Musc and during wash. Note the absence of effect of Musc in slices from zymosan inflamed mice. The number of recorded cells is indicated in the right panels (*p<0.05; **p<0.01; ns: non-significant). (See also FIG. 8).
Transverse spinal cord slices with attached dorsal roots from juvenile (P24 to P45) Myo1a KO and WT mice were prepared for whole-cell recording. Briefly, the animals were anesthetized using Pentobarbital (200 mg/kg), perfused with ice cold oxygenated low calcium artificial cerebrospinal fluid (ACSF; in mM: NaCl 101; KCl 3.8; MgCl2 18.7, MgSO4 1.3; KH2PO4 1.2; HEPES 10; CaCl2 1; Glucose 1), and then beheaded. The vertebral column and surrounding muscles were quickly removed and immersed in ice cold oxygenated ACSF. Following laminectomy, the spinal cord was gently removed and its lumbar part was placed into a small 3% agarose block. Spinal slices (300 μm thick) were cut using a Leica VTS1000 vibratome, and transferred in warm (31° C.) ACSF (in mM: NaCl 130.5; KCl 2.4; CaCl2 2.4; NaHCO3 19.5; MgSO4 1.3; KH2PO4 1.2; HEPES 1.25; glucose 10; pH 7.4) equilibrated with 95%02-5% CO2 for at least one hour before starting patch clamp recordings. Spinal slices were placed in a recoding chamber bathed with warmed (31° C.) ACSF Electrophysiological measurements were performed under the control of an Olympus BX51 microscope using a multiclamp 2B (Molecular devices). Patch pipettes ([…]) were filled with C-based pipette solution (in mM: CsMethaneSulfonate 120; CsCl 20; CaCl2 0.1; MgCl2 1.3; EGTA 1; HEPES 10; GTP 0.1; cAMP 0.2; Leupeptin 0.1; Na2ATP 3; D-Manitol 77; pH 7.3). A glass suction electrode connected to a Master 8 (A.M.P. Instrument Ltd) stimulator was used to stimulate dorsal roots. Typically, a pair of high duration (500 μs) high intensity stimulations (350 μA) was used to recruit most primary afferent fibers in the recorded slice. All drugs were purchased from Sigma. Statistical comparison of EPSC frequencies was assessed for each cell using Kolmogorov-Smirnov test.

Compound	reversal of SNI-induced mechanical hypersensitivity (WT and Myo1a KO mice [1])	reversal of injury-induced mechanical hypersensitivity (conclusions summary) (WT and Myo1a KO mice [1]; Myo1a KO mice)	other results
C[C@@H](NC(=O)[C@@H](N)Cc1ccc(O)cc1)C(=O)NCC(=O)N(C)[C@@H](Cc1ccccc1)C(=O)NCCO [DAMGO]	significantly reversed		
C=CCN1C[C@H](C)N([C@H](c2ccc(C(=O)N(CC)CC)cc2)c2cccc(OC)c2)C[C@H]1C [SNC80]	significantly reversed		reversal of zymosan-induced mechanical pain (WT and Myo1a KO mice [2]; both genotypes, i.t 10 nmol SNC80): strongly reversed
NCC(CC(=O)O)c1ccc(Cl)cc1 (stereo not shown) [baclofen]	significantly reversed	transiently reversed	
CN1C(=O)CN=C(c2ccccc2)c2cc(Cl)ccc21 [diazepam]			reversal of zymosan-induced mechanical hypersensitivity (WT and Myo1a KO mice [2]; Myo1a KO mice, 0.09 mg/kg): had no effect and not; reversal of zymosan-induced mechanical hypersensitivity (WT and Myo1a KO mice [2]; Myo1a KO mice, listed as DZP, 0.09 mg/kg): totally insensitive; reversal of zymosan-induced mechanical hypersensitivity (WT and Myo1a KO mice [2]; WT mice): strongly reversed
NCc1cc(=O)[nH]o1 [muscimol]		not	reversal of SNI-induced mechanical pain (WT and Myo1a KO mice [1]; Myo1a KO mice, i.t 0.15 μg muscimol): completely failed to reverse; also recorded: totally insensitive; sEPSC frequency (laminae II neurons; naïve WT mice, bath application of 5 μM muscimol): significant increase; increase in sEPSC frequency (laminae II neurons; naïve slices from Myo1a KO mice, 5 μM muscimol): 544%; sEPSC frequency, effect relative to naïve WT (laminae II neurons; slices from WT mice inflamed with zymosan, 5 μM muscimol): almost doubled; sEPSC frequency (laminae II neurons; slices from zymosan inflamed Myo1a KO mice, 5 μM muscimol): had no effect; reversal of zymosan-induced mechanical hypersensitivity (WT and Myo1a KO mice [2]; Myo1a KO mice): had no effect; reversal of zymosan-induced mechanical hypersensitivity (WT and Myo1a KO mice [2]; WT mice): strongly reversed
CC(C)C[C@H](CN)CC(=O)O [pregabalin]	significantly reversed	transiently reversed	
NCCS(=O)(=O)O [taurine]	significantly reversed	transiently reversed	
TAFA4: recombinant human TAFA4 (R&D Systems), a chemokine-like protein	significantly reversed	transiently reversed	
